Laboratory results taken from patent US20220047716A1, “COMBINATION THERAPIES WITH ANTI-FOLATE RECEPTOR ANTIBODY CONJUGATES” (SUTRO BIOPHARMA, INC., priority 2018, published 2022).
Values joined by “and” are separate entries in the source; they are usually repeats but may differ in a detail not shown here. Equal values may be shown once.

Tests used:
MC38-hFolRα tumors = assay: MC38-hFolRα tumor model, combination with Avelumab; conditions: ADC Molecule 4 10 or 15 mg/kg once IV; Avelumab q3dx3 intraperitoneally
Protocol: Growth curves are shown until >50% of animals in the single agent treatment groups were euthanized due to reaching tumor size limit based on IACUC protocol. […] Statistical analysis for comparison to vehicle control was performed using one-way ANOVA with Dunnett's multiple comparisons test. A probability of less than 5% (p<0.05) was considered as significant. […] All graphs are presented as mean or individual values±SEM.

Igrov1 tumors = assay: Igrov1 ovarian tumor xenograft efficacy in SCID Beige mice; assay type: in vivo; conditions: Igrov1, day 29; ADC Molecule 4 2.5 mg/kg single dose; carboplatin 60 mg/kg q7dx2
Protocol: Igrov1 ovarian cancer cells were implanted subcutaneously into SCID Beige mice and treated with a single dose of 2.5 mg/kg FolRα ADC variants listed in Table 20. ADCs were administered when tumors reached ˜150 mm^3.

[1] = Body weight change in rats given free drugs; assay type: in vivo; conditions: IV bolus, free drug (I) two doses (0.4, 1 mg/kg), free drug (II) 0.4 mg/kg
[2] = Pharmacokinetics of free drugs (I) and (II) in Sprague-Dawley rats; assay type: in vivo; conditions: IV bolus 0.4 or 1 mg/kg, data not shown
Protocol: To assess the pharmacokinetic profile of free drug (I), female Sprague-Dawley rats (mean body weight 250 g) were given either a 0.4 mg/kg or 1 mg/kg dose by IV bolus administration (N=three animal per dose level) via an indwelling jugular vein catheter. Blood samples were collected at […], 1, 2, 8, 24, 32, 48, and 72 hour post-dose. Levels of free drug (I) and (II) were measured by LC-MS/MS and non-compartmental pharmacokinetic analysis was conducted using Phoenix WinNonlin Version 6.4 (Pharsight Corporation). The PK of free drug (I) could not be estimated due to the fact that concentrations of (I) increased from 2 to 8 hours and were undetectable thereafter.

Avelumab: PD-L1 inhibitor Avelumab (clinical grade)
Initial effect on MC38-hFolRα tumor growth (MC38-hFolRα tumors): tumor stasis until approximately day 7

N.N.O=C([O-])C1(C(=O)[O-])CCC1.[Pt+2] [carboplatin]
Final mean tumor size (Igrov1 tumors): 842 mm^3 | Tumor growth inhibition (TGI) (Igrov1 tumors): 70% and 47%

COc1cc2cc(c1Cl)N(C)C(=O)C[C@H](OC(=O)[C@H](C)N(C)C(=O)CCC(C)(C)S)[C@]1(C)O[C@H]1[C@H](C)[C@@H]1C[C@@](O)(NC(=O)O1)[C@H](OC)/C=C/C=C(/C)C2 [free drug (II), reference compound]
Effect on body weight [1]: progressive body weight loss was observed

CN[C@H](C(=O)N[C@H](C(=O)N(C)[C@H](/C=C(\C)C(=O)O)C(C)C)C(C)(C)C)C(C)(C)c1cccc(N)c1 [free drug (I)]
Effect on body weight [1]: did not have an effect on the body weight of the animals | Plasma level of free drug [2]: undetectable at 24 hours post dose
